The values that follow come from ChEMBL document CHEMBL1143888, “Synthesis and structure-activity relationships of N-{1-[(6-fluoro-2-naphthyl)methyl]piperidin-4-yl}benzamide derivatives as novel CCR3 antagonists” (Bioorg Med Chem, 2008).

The target in one test is T1, C-C chemokine receptor type 3 (Homo sapiens) (UniProt P51677).
T1 sequence (whole entry): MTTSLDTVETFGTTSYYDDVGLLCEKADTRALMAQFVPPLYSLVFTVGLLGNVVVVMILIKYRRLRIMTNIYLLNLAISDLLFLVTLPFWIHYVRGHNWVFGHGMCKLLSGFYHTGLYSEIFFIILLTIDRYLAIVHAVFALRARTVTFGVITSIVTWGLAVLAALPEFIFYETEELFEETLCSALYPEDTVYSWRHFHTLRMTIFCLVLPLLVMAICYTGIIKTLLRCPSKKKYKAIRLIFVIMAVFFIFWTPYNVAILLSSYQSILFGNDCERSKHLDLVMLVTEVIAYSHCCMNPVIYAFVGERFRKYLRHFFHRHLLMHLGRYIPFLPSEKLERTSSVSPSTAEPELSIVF
The experiment in a line: Antagonist activity at CCR3 expressed in B300-19 cells assessed as inhibition of eotaxin-induced calcium influx at 10 uM. The class given is functional, cell-based.
On to `O=C(NC1CCN(Cc2ccc3cc(F)ccc3c2)CC1)c1ccc(Oc2ccccc2)cc1`, for which the inhibition was found to be 40%.
On the same count and under the same terms, in the case of `O=C(Nc1ccccc1)NC1CCN(Cc2ccc3cc(F)ccc3c2)CC1` it was 31%; in that of `O=C(NC1CCN(Cc2ccc3cc(F)ccc3c2)CC1)c1ccc(-c2ccccc2)cc1`, 27%.

The target of another test is T2, C-C chemokine receptor type 3 (Homo sapiens, UniProt P51677).
T2 sequence (P51677 whole entry): T1 sequence (whole entry)
Kind of test: Antagonist activity at CCR3 expressed in B300-19 cells assessed as inhibition of eotaxin-induced calcium influx. Type of test: functional, cell-based.
Take `CC1(NC(=O)c2ccccc2-c2ccccc2)CCN(Cc2ccc3cc(F)ccc3c2)CC1`: the IC50 came to 2800 nM.
On the same count and under the same terms, the result for `CN(C(=O)c1ccccc1)C1CCN(Cc2ccc3cc(F)ccc3c2)CC1` reads 810 nM.
Same read-out and setting: the result for `O=C(NC1CCN(Cc2ccc3cc(F)ccc3c2)CC1)c1ccccc1Oc1ccccc1` reads 95 nM; that for `Fc1ccc2cc(CN3CCC(NCc4ccccc4)CC3)ccc2c1`, 600 nM.
In the case of `O=C(NC1CCN(C/C=C/c2ccc(F)cc2)CC1)c1ccccc1`, the IC50 came out at 3400 nM.
Still for that read-out and setting: the result for `O=C(NC1CCN(Cc2ccc3cc(F)ccc3c2)CC1)c1ccccc1` reads 1300 nM.
On the same count and under the same terms, in the case of `O=C(Nc1ccccc1)OC1CCN(Cc2ccc3cc(F)ccc3c2)CC1` it was 4800 nM; in that of `O=S(=O)(NC1CCN(Cc2ccc3cc(F)ccc3c2)CC1)c1ccccc1`, 830 nM; in that of `O=C(Nc1ccccc1)C1CCN(Cc2ccc3cc(F)ccc3c2)CC1`, 1700 nM.
On the same count and under the same terms, the result for `COc1ccc(C(=O)NC2CCN(Cc3ccc4cc(F)ccc4c3)CC2)cc1` reads 2400 nM; that for `O=C(NC1CCN(Cc2ccc3cc(F)ccc3c2)CC1)c1cccc(F)c1`, 670 nM.
For `COc1ccccc1C(=O)NC1CCN(Cc2ccc3cc(F)ccc3c2)CC1`, the IC50 is 720 nM.
Turning to `O=C(NC1CCN(Cc2ccc3cc(F)ccc3c2)CC1)c1cccc(Oc2ccccc2)c1`, the IC50 was 1100 nM.
As for `O=C(NC1CCN(Cc2ccc3cc(F)ccc3c2)CC1)c1ccccc1F`, the IC50 turned out to be 2900 nM.
The same measure, in the same setting: the result for `COc1cccc(C(=O)NC2CCN(Cc3ccc4cc(F)ccc4c3)CC2)c1` reads 3500 nM.

Another test deals with T3, C-C chemokine receptor type 1 (Homo sapiens) (UniProt P32246).
T3 sequence (whole entry): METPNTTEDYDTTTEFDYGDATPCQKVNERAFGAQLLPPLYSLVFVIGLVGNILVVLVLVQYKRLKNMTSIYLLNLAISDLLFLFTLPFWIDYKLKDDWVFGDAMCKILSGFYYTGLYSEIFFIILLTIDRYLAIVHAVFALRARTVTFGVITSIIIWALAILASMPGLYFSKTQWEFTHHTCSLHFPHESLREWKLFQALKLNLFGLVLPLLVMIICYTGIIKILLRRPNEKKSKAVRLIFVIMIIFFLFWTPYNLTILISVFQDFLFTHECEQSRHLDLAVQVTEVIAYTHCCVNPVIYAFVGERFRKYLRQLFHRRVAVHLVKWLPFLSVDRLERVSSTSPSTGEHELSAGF
The experiment in a line: Inhibition of CCR1 at 10 uM.
In turn, `O=C(NC1C[C@@H]2CC[C@@H](C1)N2Cc1ccc2cc(F)ccc2c1)c1ccccc1-c1ccccc1` (relative stereo; 31) had an inhibition of 40%.
